# Assay results taken from paper PMC10447463, “Data-mining unveils structure–property–activity correlation of viral infectivity enhancing self-assembling peptides” (Nature Communications, 2023).
# Where two headings read alike, the source gives them in different places.
# Key:
# [1] = test system: HIV-1 infection of TZM-bl cells; experiment: HIV-1 infectivity enhancement assay, β-galactosidase luminescence; type: cell-based; conditions: for Rel-EFC / Log10 Infection Rel EFC: 1.3 µM peptide; for Rel-EFC: infection relative to EF-C (QCKIKQIINMWQ = 1); for Log10 Infection Rel EFC: log10 of infection relative to EF-C; for Log Infectivity: Log10 infection relative to EF-C, TZM-bl cells, asymmetric std dev errors; for Log10 Infection Rel EF-C: HIV-1 infection of TZM-bl cells; for Abs. Inf.: absolute infection signal, HIV-1 on TZM-bl cells, β-galactosidase luminescence; for Log10 Inf. rel. to EF-C: log10 of HIV-1 infection of TZM-bl cells relative to EF-C (EF-C = 0); for Log10 of Rel to EFC (Feb2021): Log10 of infection relative to EF-C
# [2] = β-sheet content by ATR-FT-IR; type: physicochemical; conditions: for b -sheet / %: Fig. S7 panel A, β-sheet content by ATR-FT-IR
# Method in brief: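 Lyophilized PNF (from 1 mg/mL) scanned 64× on diamond ATR, 2 cm^-1 resolution; β-sheet content per earlier report. CR: spin through 3 kDa MWCO, 16200 x g, 4 °C, 45 min; lyophilize filtrate + unfiltered; DMSO; fluorescamine 20 min RT; ex 365/em 470.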
# [3] = Zeta-potential measurement; type: physicochemical
# Method in brief: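 Peptides from a 10 mg/mL DMSO stock were brought to 1 mg/mL in PBS (pH 7.4) and aged 1 d at RT. Just before reading, they were diluted into 1 mM aqueous KCl, and zeta potential was calculated from electrophoretic mobility with the Smoluchowski formula.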
# [4] = Turbidity, derived count rate of scattered light; type: physicochemical; conditions: for Count Rate / kcps: derived count rate of scattered light at 633 nm, 173°, from zeta-potential measurement, 0.1 mg/mL in 1 mM KCl after 1 d at 1 mg/mL in PBS, turbidity / microscopic aggregation, mean of triplicate
# Method in brief: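 Samples: 1 mg/mL in PBS pH 7.4 (from DMSO), 1 d at RT, then diluted in 1 mM KCl immediately before measurement. Triplicates, two independent runs averaged.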
# [5] = Turbidity, derived count rate of scattered light; type: physicochemical; conditions: for Count Rate: derived count rate of scattered light (turbidity); for Log10 Count Rate: turbidity, derived count rate of scattered light, data of Figure 2D
# [6] = Fig. S7 panel A (plotted against β-sheet content)
# [7] = Fig. S7 panel B (plotted against CR), rounded to two decimals
# [8] = Log10 of infection rate relative to EF-C, Figure 3A source data
# [9] = infection rate relative to EF-C, log10, data of Figure 2D
# [10] = infection rate relative to EF-C, log10, source data of Figure 2C
# [11] = zeta-potential of peptide, source data of Figure 2C
# [12] = zeta-potential of the peptide assemblies, mean, Figure 3A source data
# [13] = Log10 of derived count rate of scattered light (turbidity)
# [14] = turbidity, Log10 of derived count rate of scattered light, Figure 3A source data
# [15] = turbidity, log10 of derived count rate of scattered light
# [16] = zeta potential of peptide assemblies
# [17] = log10 of derived count rate of scattered light (turbidity)
Substance,Rel-EFC [1],Log10 Infection Rel EFC [1],"Log Infectivity [1, 6]","Log Infectivity [1, 7]","Log10 Infection Rel EF-C [1, 8]","Log10 Infection Rel EF-C [1, 9]","Log10 Infection Rel EF-C [1, 10]",Abs. Inf. [1],Log10 Inf. rel. to EF-C [1],b -sheet / % [2],Zeta-Pot. [3],"Zeta-Potential / mV [3, 11]","Zeta-Potential / mV [3, 12]","Log10 Count Rate [4, 13]",Count Rate / kcps [4],"Log10 Count Rate [4, 14]","Log10 Count Rate [4, 15]",Count Rate [5],Log10 Count Rate [5],Log10 of Rel to EFC (Feb2021) ([1]; all peptides of FigS16),also measured
RGDKIRGDKI,"0,01","-2,13",-2.126,-2.13,-2.13,-2.126,-2.126,163.3,-2.126,15.01%,-13.57,-7.422 mV,-13.57 mV,2.456,286 kcps,2.456,2.456,285.8,2.456,,
KNDKND,"0,01","-1,98",-1.978,,-1.98,-1.978,-1.978,230,-1.978,43.2531%,-15,-11.85 mV,-15 mV,1.719,52 kcps,1.719,1.719,52.4,1.719,,
MKFKFQF,"0,06","-1,2",-1.196,-1.2,-1.2,-1.196,-1.196,1427,-1.196,21.97%,-3.133,-0.4917 mV,-3.13 mV,2.0933,124 kcps,2.0933,2.0933,124,2.0933,,
QCKFKFQFNM,"0,51","-0,29",-0.2906,-0.29,-0.29,-0.2906,-0.2906,16353.33333,-0.2906,37.29%,15.7,16.1 mV,15.7 mV,3.565,3670 kcps,3.565,3.565,3669.6,3.565,-0.29,
KIKIKIKIYYYY,"1,38","0,14",0.1402,,0.14,0.1402,0.1402,,0.1402,56.7%,,14.07 mV,13.3 mV,3.996,9918 kcps,3.996,3.996,9918,3.996,0.14,"Log10 of Rel to EFC (Feb2021) ([1]; second listing, peptides with TEM 2cat 0): 0.14; beta sheet ([2]; peptides with TEM 2cat 0): 57; Zeta-Pot. [3, 16]: 13.3; Zeta Count Rate ([4]; peptides with TEM 2cat 0): 9918 kcp"
CKFQC,"0,02","-1,64",-1.643,-1.64,-1.64,-1.643,-1.643,496.7,-1.643,43.86%,-17.38,-5.253 mV,-17.38 mV,2.115,130 kcps,2.115,2.115,130.4,2.115,,
CEFEFQF,"0,01","-2,28",-2.283,,-2.28,-2.283,-2.283,,,53%,,-10.825 mV,-13.7 mV,2.565,367 kcps,2.565,,367.4,2.565,,"Zeta-Pot. [3, 16]: -13.7; Log10 Count Rate [4, 17]: 2.565"
KIKIQINM,"0,36","-0,44",-0.4404,-0.44,-0.44,-0.4404,-0.4404,,-0.4404,41%,,10.17 mV,8.51 mV,2.418,262 kcps,2.418,2.418,262.1,2.418,-0.44,"Zeta-Pot. [3, 16]: 8.51"
HHHHEIEIEIEI,"0,03","-1,53",-1.534,,-1.53,-1.534,-1.534,,,48.37%,,-6.272 mV,-6.91 mV,2.014,103 kcps,2.014,,103.3,2.014,,"Zeta-Pot. [3, 16]: -6.91; Log10 Count Rate [4, 17]: 2.014"
NMWQKFKFQF,"0,27","-0,57",-0.5672,,-0.57,-0.5672,-0.5672,7323,-0.5672,33.22%,9.56,10.63 mV,9.56 mV,4.148,14045 kcps,4.148,4.148,14045.43333,4.148,-0.57,
